# Laboratory results published in patent publication US9927437B2, “Treating neurodegenerative disease” (THE BRIGHAM AND WOMEN'S HOSPITAL, INC., priority 2013, dated 2018).
# Entries after “also recorded” stand apart in the source; their conditions may differ.
# Tests used:
# [1] = test system: C8-D30 astrocytes; experiment: In vitro knock-down with shRNA in C8-D30 astrocytes, LPS/IFNγ activation; format: cell-based, mouse; settings: lentivirus-delivered shRNA
# [2] = test system: Naïve C57BL/6 and NOD mice; experiment: LacCer administration to naïve mice without MOG immunization; format: in vivo; settings: 10 μg per mouse, absence of MOG immunization
# Method: (§1) FIGS. 12a-i. […] (a) Naïve C57BL/6 (Left panel) and NOD (right panel) mice were treated with LacCer (10 μg per mouse) or vehicle as indicated by red arrows, and EAE clinical scores was recorded. At experimental end point (day 25), astrocytes were isolated and their transcriptional profile was determined by nCounter Nanostring analysis. (b-e) EAE was induced in C57BL/6 (b, c) or NOD mice (d, e) and LacCer or vehicle were administrated as in FIGS. 1g and 1h, respectively. Splenic T-cell recall response to MOG(35-55) (20 μg/ml); proliferation (b, d) and secretion of IL-17A, IFN-γ and IL-10 cytokines (c, e). Data are representative of two independent experiments with ≥8 mice/group (mean and s.e.m.). (f-i) EAE NOD mice were treated with PDMP or vehicle during the chronic phase as in FIG. 1K. Data are representative of three independent experiments with n≥8 mice/group (mean and s.e.m.). (f) qPCR analysis of the expression of tbx21, ifng, rorc, il17A, csf2, il10, foxp3, and tgfb1 mRNA of CD3^+CD4^+ T-cells isolated from the CNS; expression is presented relative to gapdh. (g, h) Recall response to MOG(35-55) (20 μg/ml); proliferation (g) and secretion of IL-17A, IFN-γ and IL-10 cytokines (h). (i) Expression of IFN-γ, IL-17A, Foxp3 and IL-10 by splenic CD3^+CD4^+ T cells (mean and s.e.m.).
# [3] = test system: choroid plexus cells; experiment: Transcriptional response of choroid plexus cells to LPS/IFNγ; format: cell-based, mouse; settings: LacCer 10 μM 1 h, LPS/IFNγ 6 h
# Method: FIGS. 15a-b. […] Leptomeningeal phagocytes (a) and choroid plexus cells (b) were pre-treated for 1 h with LacCer (10 μM), or vehicle control (vehicle), followed by activation with LPS/IFNγ for 6 h, or left un-treated (control, Con). mRNA expression was determined by nCounter Nanostring analysis. Representative data of two independent experiments.
# Mouse primary choroid plexus cells were prepared as described^55,56 with minor modifications. In brief, the choroid plexus was removed from 1- to 3-day-old neonatal mice, digested with 1% collagenase for 20 min at 37° C., and then dispersed into a single-cell level. The cell suspension was washed in culture medium for choroid plexus cells [Dulbecco's modified Eagle medium/Ham's F12 (Invitrogen) supplemented with 10% foetal calf serum (Sigma-Aldrich), 1 mM 1-glutamine, 1 mM sodium pyruvate, 100 U/ml penicillin, […] streptomycin, […] insulin, […] Ara-C) and cultured (2.5×10^5 cells/well) at 37° C., 5% CO2 in poly-D-lysine coated 24-well plates. After 24 h, the medium was changed, and the cells were either left untreated or treated as described.
# [4] = test system: T cells; experiment: T-cell response in EAE mice (recall proliferation, cytokines, polarization); format: in vivo, mouse
# Method: FIGS. 9a-d. Depletion of reactive astrocytes reduces the recruitment of peripheral leukocytes to the CNS. (a-d). EAE was induced in WT or GFAP^TK F1 hybrid mice and Ganciclovir (GCV) or vehicle control (PBS) was administered as in FIG. 1b. Data are representative of three independent experiments with n≥7 mice/group (means and s.e.m.). (a) Effect of GCV administration on reactive astrocytes detected by GFAP staining (b) Recruitment of monocytes (red gate) and lymphocytes (green gate) to the CNS assessed by FACS. Data are representative of three independent experiments. Statistical analysis by Student's t-test. (c, d) Effect of the depletion of reactive astrocytes during the chronic phase of EAE on the recall proliferative response to MOG(35-55) or anti-CD3 (c) and the expression of IFN-γ, IL-17A, Foxp3 and IL-10 in splenic CD4+ T cells (d). *P<0.05, and (n.s) not significant.
# as §1
# Splenocytes and lymph node cells were cultured in X-VIVO medium and were plated for 72 h at a density of 5×10^5 cells per well in the presence of MOG35-55 peptide. During the final 16 h, cells were pulsed with […] [3H]thymidine (PerkinElmer), followed by collection on glass fiber filters and analysis of incorporated [3H]thymidine in a-counter (1450 MicroBeta TriLux; PerkinElmer). Supernatants were collect after 48 h of culture for cytokine measurement by enzyme-linked immunosorbent assay^14. For intracellular cytokine staining, cells were stimulated for 6 h with PMA (phorbol 12-myristate 13-acetate; 50 ng/ml; Sigma), ionomycin (1 μg/ml; Sigma) and monensin (GolgiStop; […]; BD Biosciences). After staining of surface markers, cells were fixed and made permeable according to the manufacturer's instructions BD Cytofix/Cytoperm™ Kit (BD Biosciences), or Foxp3 Fixation/Permeabilization (Ebiosceince).
# [5] = test system: human primary astrocytes; experiment: Activation of human primary astrocytes with IL-1β or poly(I:C), qPCR; format: cell-based; settings: PDMP 25 μM; IL-1β 10 ng/ml or Poly (I:C) 10 μg/ml, 6 h
# Description: FIG. 6a-d. […] Autopsy samples were obtained from lesions (n=10) or NAWM (n=5) from MS, non-MS CNS inflammatory diseases (NMSCID, including viral encephalitis, Rasmussen's encephalitis and ADEM, n=5) patients and healthy controls (n=6). (a) qPCR analysis of B4GALT5 and B4GALT6 mRNA expression in CNS samples relative to ACTB. (b) IF analysis of B4GALT6, CCL2 and iNOS in GFAP+ astrocytes in NAWM and Lesion of MS patients. (c) LacCer levels determined in CNS samples, relative to protein content. Statistical analysis by one-way ANOVA, followed by Tukey post-hoc analysis. (d) Primary human astrocytes were pre-treated with PDMP (25 μM) or vehicle, and activated with IL-1β (10 ng/ml) or Poly (I:C) (10 μg/ml) or left untreated (control). RNA was harvested 6 h later and the expression of CCL2, CCL5, COX2, IL6, NOS2, and TLR2 was analyzed by qPCR relative to ACTB in 3 independent experiments. Statistical analysis by Student's t-test. Data presented are mean and s.e.m. *P<0.05, **P<0.01 and ***P<0.001.
# Human fetal astrocytes were isolated as previously described^57 from human CNS tissue from fetuses at 17-23 wk of gestation obtained from the Human Fetal Tissue Repository (Albert Einstein College of Medicine, Bronx, N.Y.) following Canadian Institutes for Health Research-approved guidelines. Cultures were >90% pure.
compound,measurement,setting,value
shB4galt6: lentivirus-delivered shRNA against b4galt6 (TRCN0000334278; SEQ ID NO:3) (guide CGATGGACTGAACAATTTATTCTCGAGAATAAATTGTTCAGTCCACG),"up-regulation of h2-Aa, ccl5 and cxcl10 expression",[1],significantly suppressed the up-regulation
lactosylceramide [LacCer],induction of EAE-like disease,[2],did not result in the induction of EAE-like disease
same,transcriptional response to activation of choroid plexus cells,[3],did not affect the transcriptional response; also recorded: does not affect the transcriptional response
same,T-cell response,[4]; C57BL/6 and NOD EAE after LacCer administration,not linked to changes in the T-cell response
"CCCCCCCCCC(=O)N[C@H](CN1CCOCC1)[C@H](O)c1ccccc1 [PDMP, D-threo-1-phenyl-2-decanoylamino-3-morpholino-1-propanol]",T-cell response,"[4]; NOD EAE, PDMP-treated mice, chronic phase",No significant changes
same,"CCL2, CCL5, COX2, IL6, NOS2 and TLR2 expression",[5],significant decrease
